Assays:
[1] = molecular target: Activin receptor type-1B (Homo sapiens) (UniProt P36896); settings: Compound concentration 1000.0 nM
[2] = molecular target: Cyclin-dependent kinase 11B (Homo sapiens) (UniProt P21127); settings: Compound concentration 1000.0 nM
[3] = molecular target: Cyclin-dependent kinase 2 (Homo sapiens) (UniProt P24941); settings: Compound concentration 1000.0 nM
[4] = molecular target: Cyclin-dependent kinase 4 (Homo sapiens) (UniProt P11802); settings: Compound concentration 1000.0 nM
[5] = molecular target: Cyclin-dependent kinase 7 (Homo sapiens) (UniProt P50613); settings: Compound concentration 1000.0 nM
[6] = molecular target: Tyrosine-protein kinase CSK (Homo sapiens) (UniProt P41240); settings: Compound concentration 1000.0 nM
[7] = molecular target: Death-associated protein kinase 2 (Homo sapiens) (UniProt Q9UIK4); settings: Compound concentration 1000.0 nM
[8] = molecular target: Serine/threonine-protein kinase DCLK1 (Homo sapiens) (UniProt O15075); settings: Compound concentration 1000.0 nM
[9] = molecular target: Serine/threonine-protein kinase MRCK gamma (Homo sapiens) (UniProt Q6DT37); settings: Compound concentration 1000.0 nM
[10] = molecular target: Ephrin type-A receptor 7 (Homo sapiens) (UniProt Q15375); settings: Compound concentration 1000.0 nM
[11] = molecular target: Mitogen-activated protein kinase 7 (Homo sapiens) (UniProt Q13164); settings: Compound concentration 1000.0 nM
[12] = molecular target: Vascular endothelial growth factor receptor 3 (Homo sapiens) (UniProt P35916); settings: Compound concentration 1000.0 nM
[13] = molecular target: Glycogen synthase kinase-3 alpha (Homo sapiens) (UniProt P49840); settings: Compound concentration 1000.0 nM
[14] = molecular target: Glycogen synthase kinase-3 beta (Homo sapiens) (UniProt P49841); settings: Compound concentration 1000.0 nM
[15] = molecular target: Hormonally up-regulated neu tumor-associated kinase (Homo sapiens) (UniProt P57058); settings: Compound concentration 1000.0 nM
[16] = molecular target: Serine/threonine-protein kinase ICK (Homo sapiens) (UniProt Q9UPZ9); settings: Compound concentration 1000.0 nM
[17] = molecular target: Insulin receptor-related protein (Homo sapiens) (UniProt P14616); settings: Compound concentration 1000.0 nM
[18] = molecular target: Mitogen-activated protein kinase kinase kinase 4 (Homo sapiens) (UniProt Q9Y6R4); settings: Compound concentration 1000.0 nM
[19] = molecular target: Dual specificity mitogen-activated protein kinase kinase 3 (Homo sapiens) (UniProt P46734); settings: Compound concentration 1000.0 nM
[20] = molecular target: Serine/threonine-protein kinase mTOR (Homo sapiens) (UniProt P42345); settings: Compound concentration 1000.0 nM
[21] = molecular target: Myosin-IIIa (Homo sapiens) (UniProt Q8NEV4); settings: Compound concentration 1000.0 nM
[22] = molecular target: Serine/threonine-protein kinase Nek1 (Homo sapiens) (UniProt Q96PY6); settings: Compound concentration 1000.0 nM
[23] = molecular target: Serine/threonine-protein kinase NIM1 (Homo sapiens) (UniProt Q8IY84); settings: Compound concentration 1000.0 nM
[24] = molecular target: Cyclin-dependent kinase 15 (Homo sapiens) (UniProt Q96Q40); settings: Compound concentration 1000.0 nM
[25] = molecular target: Phosphorylase b kinase gamma catalytic chain, skeletal muscle/heart isoform (Homo sapiens) (UniProt Q16816); settings: Compound concentration 1000.0 nM
[26] = molecular target: Phosphatidylinositol 4-phosphate 3-kinase C2 domain-containing subunit beta (Homo sapiens) (UniProt O00750); settings: Compound concentration 1000.0 nM
[27] = molecular target: Phosphatidylinositol 4,5-bisphosphate 3-kinase catalytic subunit alpha isoform (Homo sapiens) (UniProt P42336); settings: Compound concentration 1000.0 nM
[28] = molecular target: RAF proto-oncogene serine/threonine-protein kinase (Homo sapiens) (UniProt P04049); settings: Compound concentration 1000.0 nM
[29] = molecular target: Ribosomal protein S6 kinase alpha-5 (Homo sapiens) (UniProt O75582); settings: Compound concentration 1000.0 nM
[30] = molecular target: Ribosomal protein S6 kinase alpha-3 (Homo sapiens) (UniProt P51812); settings: Compound concentration 1000.0 nM
[31] = molecular target: SRSF protein kinase 3 (Homo sapiens) (UniProt Q9UPE1); settings: Compound concentration 1000.0 nM
[32] = molecular target: Serine/threonine-protein kinase 16 (Homo sapiens) (UniProt O75716); settings: Compound concentration 1000.0 nM
[33] = molecular target: Serine/threonine-protein kinase TAO2 (Homo sapiens) (UniProt Q9UL54); settings: Compound concentration 1000.0 nM
[34] = molecular target: Angiopoietin-1 receptor (Homo sapiens) (UniProt Q02763); settings: Compound concentration 1000.0 nM
[35] = molecular target: Serine/threonine-protein kinase ULK2 (Homo sapiens) (UniProt Q8IYT8); settings: Compound concentration 1000.0 nM
[36] = molecular target: Serine/threonine-protein kinase 32B (Homo sapiens) (UniProt Q9NY57); settings: Compound concentration 1000.0 nM
[37] = molecular target: 5-hydroxytryptamine receptor 2B (Homo sapiens) (UniProt P41595); settings: Compound concentration 10.0 uM
[38] = molecular target: T1, 5-hydroxytryptamine receptor 3A (Homo sapiens) (UniProt P46098); settings: Compound concentration 10.0 uM
T1 sequence (whole entry): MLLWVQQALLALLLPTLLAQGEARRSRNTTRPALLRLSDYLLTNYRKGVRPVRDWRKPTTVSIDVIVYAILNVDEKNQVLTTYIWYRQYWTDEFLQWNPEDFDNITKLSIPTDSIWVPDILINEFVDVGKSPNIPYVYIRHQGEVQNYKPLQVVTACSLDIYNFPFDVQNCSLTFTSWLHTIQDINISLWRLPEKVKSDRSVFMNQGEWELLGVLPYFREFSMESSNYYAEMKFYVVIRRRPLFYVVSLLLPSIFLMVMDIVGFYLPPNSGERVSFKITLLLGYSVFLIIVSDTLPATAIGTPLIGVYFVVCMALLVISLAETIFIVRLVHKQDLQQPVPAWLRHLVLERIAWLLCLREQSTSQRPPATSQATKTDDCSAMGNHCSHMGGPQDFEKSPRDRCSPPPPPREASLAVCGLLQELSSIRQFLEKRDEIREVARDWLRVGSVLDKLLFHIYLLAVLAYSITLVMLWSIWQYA

[39] = molecular target: Histamine H1 receptor (Homo sapiens) (UniProt P35367); settings: Compound concentration 10.0 uM
Sequence of Histamine H1 receptor (Homo sapiens) (P35367 whole entry): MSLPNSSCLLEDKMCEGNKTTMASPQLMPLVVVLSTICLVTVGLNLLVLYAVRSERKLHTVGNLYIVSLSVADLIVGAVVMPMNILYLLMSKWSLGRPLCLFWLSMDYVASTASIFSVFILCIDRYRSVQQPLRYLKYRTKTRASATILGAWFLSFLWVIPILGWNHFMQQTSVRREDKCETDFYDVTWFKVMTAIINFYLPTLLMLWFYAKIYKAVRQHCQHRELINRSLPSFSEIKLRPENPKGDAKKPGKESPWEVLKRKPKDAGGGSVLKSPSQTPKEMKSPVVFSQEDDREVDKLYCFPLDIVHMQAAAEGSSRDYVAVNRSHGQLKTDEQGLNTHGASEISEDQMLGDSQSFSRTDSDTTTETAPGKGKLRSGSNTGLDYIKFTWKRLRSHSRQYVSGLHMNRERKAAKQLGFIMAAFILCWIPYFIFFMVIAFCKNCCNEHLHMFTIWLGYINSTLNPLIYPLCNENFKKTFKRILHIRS

Sequence of Death-associated protein kinase 2 (Homo sapiens) (Q9UIK4 whole entry, looked up): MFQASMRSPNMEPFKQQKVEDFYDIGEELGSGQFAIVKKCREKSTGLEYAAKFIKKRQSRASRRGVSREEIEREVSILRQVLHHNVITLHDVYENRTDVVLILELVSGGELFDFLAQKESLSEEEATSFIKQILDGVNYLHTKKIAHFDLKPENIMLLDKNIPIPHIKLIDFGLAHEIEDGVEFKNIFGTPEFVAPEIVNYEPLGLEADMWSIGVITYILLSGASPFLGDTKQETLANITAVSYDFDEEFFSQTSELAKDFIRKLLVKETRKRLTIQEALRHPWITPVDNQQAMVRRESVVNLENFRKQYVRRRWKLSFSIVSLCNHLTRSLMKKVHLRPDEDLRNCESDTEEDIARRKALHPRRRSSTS
Sequence of Serine/threonine-protein kinase TAO2 (Homo sapiens) (Q9UL54 whole entry): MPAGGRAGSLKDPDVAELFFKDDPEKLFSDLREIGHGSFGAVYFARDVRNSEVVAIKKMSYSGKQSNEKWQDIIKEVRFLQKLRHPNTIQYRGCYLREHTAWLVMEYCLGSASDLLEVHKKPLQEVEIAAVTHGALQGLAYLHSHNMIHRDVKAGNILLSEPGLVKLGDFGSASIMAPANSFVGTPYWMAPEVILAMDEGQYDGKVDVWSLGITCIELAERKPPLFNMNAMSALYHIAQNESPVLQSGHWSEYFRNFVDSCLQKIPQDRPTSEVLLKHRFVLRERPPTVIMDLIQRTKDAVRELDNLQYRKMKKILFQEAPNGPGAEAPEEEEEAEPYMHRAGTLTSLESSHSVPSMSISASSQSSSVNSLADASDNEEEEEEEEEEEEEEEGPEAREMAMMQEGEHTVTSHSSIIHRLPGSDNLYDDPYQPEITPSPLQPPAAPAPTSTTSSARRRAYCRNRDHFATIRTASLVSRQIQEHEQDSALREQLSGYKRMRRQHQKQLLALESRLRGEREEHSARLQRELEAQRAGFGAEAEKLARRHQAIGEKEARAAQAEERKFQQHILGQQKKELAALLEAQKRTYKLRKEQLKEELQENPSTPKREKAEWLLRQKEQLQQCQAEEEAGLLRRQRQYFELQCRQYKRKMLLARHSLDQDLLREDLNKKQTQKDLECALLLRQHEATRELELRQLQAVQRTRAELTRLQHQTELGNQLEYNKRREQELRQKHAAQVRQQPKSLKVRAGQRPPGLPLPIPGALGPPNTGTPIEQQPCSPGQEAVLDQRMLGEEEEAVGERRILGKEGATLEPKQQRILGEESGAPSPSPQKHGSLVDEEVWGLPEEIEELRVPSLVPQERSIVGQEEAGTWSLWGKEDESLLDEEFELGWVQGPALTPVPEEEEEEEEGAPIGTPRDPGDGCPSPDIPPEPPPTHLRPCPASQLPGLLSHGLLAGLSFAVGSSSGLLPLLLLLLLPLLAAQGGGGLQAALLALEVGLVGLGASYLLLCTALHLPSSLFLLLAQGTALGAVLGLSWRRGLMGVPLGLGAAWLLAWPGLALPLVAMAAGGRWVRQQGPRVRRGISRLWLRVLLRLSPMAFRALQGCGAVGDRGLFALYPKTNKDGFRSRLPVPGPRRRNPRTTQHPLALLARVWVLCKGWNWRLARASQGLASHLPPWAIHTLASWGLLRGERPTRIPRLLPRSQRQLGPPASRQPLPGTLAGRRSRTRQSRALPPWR
Sequence of Serine/threonine-protein kinase 16 (Homo sapiens) (O75716 whole entry): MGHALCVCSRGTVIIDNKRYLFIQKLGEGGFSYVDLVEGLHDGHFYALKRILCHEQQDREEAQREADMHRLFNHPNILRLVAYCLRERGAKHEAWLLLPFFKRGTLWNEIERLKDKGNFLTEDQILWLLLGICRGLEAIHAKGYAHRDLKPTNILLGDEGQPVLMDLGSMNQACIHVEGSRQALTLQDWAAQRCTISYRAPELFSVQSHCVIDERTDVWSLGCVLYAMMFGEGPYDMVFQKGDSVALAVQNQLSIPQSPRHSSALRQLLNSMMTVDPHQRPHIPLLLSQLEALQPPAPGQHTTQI
Sequence of Insulin receptor-related protein (Homo sapiens) (P14616 27-742 limits assumed): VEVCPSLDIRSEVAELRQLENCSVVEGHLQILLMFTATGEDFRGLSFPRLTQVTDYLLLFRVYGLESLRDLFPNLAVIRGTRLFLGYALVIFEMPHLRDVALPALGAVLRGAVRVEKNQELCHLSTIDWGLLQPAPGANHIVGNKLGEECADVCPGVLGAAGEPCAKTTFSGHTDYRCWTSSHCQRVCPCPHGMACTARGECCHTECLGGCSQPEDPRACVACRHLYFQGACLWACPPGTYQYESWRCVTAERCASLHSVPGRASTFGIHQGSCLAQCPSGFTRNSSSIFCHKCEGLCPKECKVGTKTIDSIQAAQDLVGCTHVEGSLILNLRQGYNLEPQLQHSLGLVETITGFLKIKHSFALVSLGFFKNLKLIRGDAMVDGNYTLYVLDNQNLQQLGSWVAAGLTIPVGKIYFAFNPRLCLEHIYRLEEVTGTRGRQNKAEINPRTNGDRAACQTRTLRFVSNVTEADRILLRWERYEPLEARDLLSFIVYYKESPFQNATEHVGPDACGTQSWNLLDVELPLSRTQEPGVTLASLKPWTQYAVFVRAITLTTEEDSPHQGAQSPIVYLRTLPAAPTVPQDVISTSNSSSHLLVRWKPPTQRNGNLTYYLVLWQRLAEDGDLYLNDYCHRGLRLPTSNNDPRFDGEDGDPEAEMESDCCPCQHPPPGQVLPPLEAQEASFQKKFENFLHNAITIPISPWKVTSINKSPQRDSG
Sequence of Insulin receptor-related protein (Homo sapiens) (P14616 747-1297 limits assumed): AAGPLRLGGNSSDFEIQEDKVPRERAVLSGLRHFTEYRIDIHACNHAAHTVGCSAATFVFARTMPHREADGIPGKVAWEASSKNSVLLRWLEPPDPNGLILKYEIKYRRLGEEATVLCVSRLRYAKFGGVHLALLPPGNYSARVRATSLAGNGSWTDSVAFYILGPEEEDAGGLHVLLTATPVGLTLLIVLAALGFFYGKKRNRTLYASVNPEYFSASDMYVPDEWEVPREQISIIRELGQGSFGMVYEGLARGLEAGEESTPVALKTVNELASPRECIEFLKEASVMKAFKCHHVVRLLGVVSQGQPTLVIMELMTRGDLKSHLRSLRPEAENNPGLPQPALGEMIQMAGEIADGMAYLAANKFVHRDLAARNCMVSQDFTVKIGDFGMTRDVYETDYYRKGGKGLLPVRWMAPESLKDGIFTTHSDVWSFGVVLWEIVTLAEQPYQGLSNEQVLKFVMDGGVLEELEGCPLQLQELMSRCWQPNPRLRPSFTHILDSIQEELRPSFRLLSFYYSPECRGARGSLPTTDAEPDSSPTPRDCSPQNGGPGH
Sequence of Ephrin type-A receptor 7 (Homo sapiens) (Q15375 28-998 limits assumed): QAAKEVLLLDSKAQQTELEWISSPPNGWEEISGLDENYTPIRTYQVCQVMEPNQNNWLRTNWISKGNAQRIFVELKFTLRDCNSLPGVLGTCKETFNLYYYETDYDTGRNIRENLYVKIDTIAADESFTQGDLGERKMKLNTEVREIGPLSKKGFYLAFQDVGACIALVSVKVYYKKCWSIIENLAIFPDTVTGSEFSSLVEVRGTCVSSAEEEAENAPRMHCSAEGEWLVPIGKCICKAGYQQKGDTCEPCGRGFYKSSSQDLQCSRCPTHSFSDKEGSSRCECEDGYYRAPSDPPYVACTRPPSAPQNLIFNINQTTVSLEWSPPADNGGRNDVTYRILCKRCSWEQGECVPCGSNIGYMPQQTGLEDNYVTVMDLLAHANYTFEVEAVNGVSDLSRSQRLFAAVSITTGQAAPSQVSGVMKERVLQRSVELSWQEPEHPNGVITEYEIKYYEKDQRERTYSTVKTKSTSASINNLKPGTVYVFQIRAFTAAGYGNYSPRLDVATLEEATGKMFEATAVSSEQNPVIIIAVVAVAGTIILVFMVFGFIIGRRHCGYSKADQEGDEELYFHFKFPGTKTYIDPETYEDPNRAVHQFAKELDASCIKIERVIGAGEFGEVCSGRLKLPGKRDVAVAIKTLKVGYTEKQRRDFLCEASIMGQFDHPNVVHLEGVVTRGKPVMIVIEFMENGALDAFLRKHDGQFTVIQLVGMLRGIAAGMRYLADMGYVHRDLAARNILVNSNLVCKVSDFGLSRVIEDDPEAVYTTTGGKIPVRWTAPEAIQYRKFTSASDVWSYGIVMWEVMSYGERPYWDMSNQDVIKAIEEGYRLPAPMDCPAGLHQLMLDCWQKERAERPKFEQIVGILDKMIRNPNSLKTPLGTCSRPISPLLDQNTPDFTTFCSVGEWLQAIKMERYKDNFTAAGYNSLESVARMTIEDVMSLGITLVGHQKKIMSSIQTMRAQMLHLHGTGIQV
Sequence of Cyclin-dependent kinase 7 (Homo sapiens) (P50613 whole entry): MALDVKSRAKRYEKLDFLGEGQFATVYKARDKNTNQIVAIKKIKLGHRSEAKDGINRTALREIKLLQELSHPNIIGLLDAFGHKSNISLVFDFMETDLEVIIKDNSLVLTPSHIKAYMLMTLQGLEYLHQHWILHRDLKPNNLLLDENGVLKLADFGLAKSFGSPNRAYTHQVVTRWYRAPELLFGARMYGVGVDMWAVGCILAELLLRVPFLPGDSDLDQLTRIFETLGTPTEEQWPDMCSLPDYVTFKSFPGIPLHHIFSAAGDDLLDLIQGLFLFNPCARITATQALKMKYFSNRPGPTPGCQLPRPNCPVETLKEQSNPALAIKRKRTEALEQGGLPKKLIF

CC(=O)N1CCC(c2ccc(C(=O)NC3=NCCN3)cc2C(F)(F)F)CC1 [BI 0054]
inactive: residual activity [1] 100% | residual activity [2] 92% | residual activity [3] 100% | residual activity [4] 100% | residual activity [5] 89% | residual activity [6] 100% | residual activity [7] 100% | residual activity [8] 89% | residual activity [9] 93% | residual activity [10] 99% | residual activity [11] 89% | residual activity [12] 98% | residual activity [13] 78% | residual activity [14] 88% | residual activity [15] 100% | residual activity [16] 88% | residual activity [17] 81% | residual activity [18] 81% | residual activity [19] 87% | residual activity [20] 67% | residual activity [21] 100% | residual activity [22] 100% | residual activity [23] 100% | residual activity [24] 100% | residual activity [25] 100% | residual activity [26] 50% | residual activity [27] 100% | residual activity [28] 100% | residual activity [29] 70% | residual activity [30] 100% | residual activity [31] 100% | residual activity [32] 100% | residual activity [33] 100% | residual activity [34] 100% | residual activity [35] 82% | residual activity [36] 100% | inhibition [37] -2.75% | inhibition [38] -4.49% | inhibition [39] -0.162%

CC(=O)N1CCC(c2ccc(C(=O)NC(=N)N)cc2C(F)(F)F)CC1 [BI 9627]
inactive: residual activity [1] 93% | residual activity [2] 100% | residual activity [3] 100% | residual activity [4] 100% | residual activity [5] 86% | residual activity [6] 100% | residual activity [7] 100% | residual activity [8] 100% | residual activity [9] 92% | residual activity [10] 100% | residual activity [11] 100% | residual activity [12] 89% | residual activity [13] 97% | residual activity [14] 85% | residual activity [15] 100% | residual activity [16] 94% | residual activity [17] 100% | residual activity [18] 98% | residual activity [19] 100% | residual activity [20] 100% | residual activity [21] 100% | residual activity [22] 100% | residual activity [23] 100% | residual activity [24] 100% | residual activity [25] 100% | residual activity [26] 95% | residual activity [27] 100% | residual activity [28] 100% | residual activity [29] 97% | residual activity [30] 95% | residual activity [31] 100% | residual activity [32] 100% | residual activity [33] 94% | residual activity [34] 96% | residual activity [35] 100% | residual activity [36] 89% | inhibition [37] -8.79% | inhibition [38] -6.68% | inhibition [39] 7.6%

Reference: ChEMBL document CHEMBL4507279, “Data for DCP probe BI-9627” (2021)
